According to patent US20250098679A1, “HERBICIDAL PYRIDONE DERIVATIVES” (SYNGENTA CROP PROTECTION AG, priority 2021, published 2025):

Key:
Type in all cases: in vivo
Details in all cases: evaluated after 13 days
Setaria faberi (SETFA) [1] = test: Pre-emergence Test, Setaria faberi (SETFA)
[2] = system: Echinochloa crus-galli (ECHCG); test: Pre-emergence Test, Echinochloa crus-galli (ECHCG)
Zea mays (ZEAMX) [3] = test: Pre-emergence Test, Zea mays (ZEAMX)
[4] = system: Ipomoea hederacea (IPOHE); test: Pre-emergence Test, Ipomoea hederacea (IPOHE)
[5] = system: Amaranthus palmeri (AMAPA); test: Pre-emergence Test, Amaranthus palmeri (AMAPA)
[6] = system: Amaranthus retoflexus (AMARE); test: Pre-emergence Test, Amaranthus retoflexus (AMARE)
Setaria faberi (SETFA) [7] = test: Post-emergence Test, Setaria faberi (SETFA); parameters: key to percentage damage caused to the plant, SETFA (five-point scale): 5=81-100%, 4=61-80%, 3=41-60%, 2=21-40%, 1=0-20% damage
Outline: (§1)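 Scores are percentage plant damage on a 1–5 scale (1=0-20%, 2=21-40%, 3=41-60%, 4=61-80%, 5=81-100%), read 13 days after treatment. Pots received a spray at 1000 g/ha unless otherwise stated, formulated in acetone/water (50:50) containing 0.5% Tween 20.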

[8] = system: Echinochloa crus-galli (ECHCG); test: Post-emergence Test, Echinochloa crus-galli (ECHCG); parameters: key to percentage damage caused to the plant, ECHCG (five-point scale): 5=81-100%, 4=61-80%, 3=41-60%, 2=21-40%, 1=0-20% damage
Outline: as §1

Zea mays (ZEAMX) [9] = test: Post-emergence Test, Zea mays (ZEAMX); parameters: key to percentage damage caused to the plant, ZEAMX (five-point scale): 5=81-100%, 4=61-80%, 3=41-60%, 2=21-40%, 1=0-20% damage
Outline: as §1

[10] = system: Ipomoea hederacea (IPOHE); test: Post-emergence Test, Ipomoea hederacea (IPOHE); parameters: key to percentage damage caused to the plant, IPOHE (five-point scale): 5=81-100%, 4=61-80%, 3=41-60%, 2=21-40%, 1=0-20% damage
Outline: as §1

[11] = system: Amaranthus palmeri (AMAPA); test: Post-emergence Test, Amaranthus palmeri (AMAPA); parameters: key: 5=81-100%, 4=61-80%, 3=41-60%, 2=21-40%, 1=0-20% damage
Outline: as §1

[12] = system: Amaranthus retoflexus (AMARE); test: Post-emergence Test, Amaranthus retoflexus (AMARE); parameters: key to percentage damage caused to the plant, AMARE (five-point scale): 5=81-100%, 4=61-80%, 3=41-60%, 2=21-40%, 1=0-20% damage
Outline: as §1

CCn1c(Cn2cc(Cl)c(C)n2)cc(=O)c(C(=O)O)c1-c1ccc(Cl)c(Cl)c1 [Compound 89, 6-[(4-chloro-3-methyl-pyrazol-1-yl)methyl]-2-(3,4-dichlorophenyl)-1-ethyl-4-oxo-pyridine-3-carboxylic acid]
Pre-emergence Test SETFA, percentage damage caused to the plant (five-point scale) (Setaria faberi (SETFA) [1]; 250 g/Ha (*)): 3 (3=41-60%) | Pre-emergence Test SETFA, percentage damage caused to the plant (five-point scale) (Setaria faberi (SETFA) [1]; 1000 g/ha): 4 (4=61-80%) | Pre-emergence Test ECHCG, percentage damage caused to the plant (five-point scale) ([2]; 250 g/Ha (*)): 4 (4=61-80%) | Pre-emergence Test ECHCG, percentage damage caused to the plant (five-point scale) ([2]; 1000 g/ha): 5 (5=81-100%) | Pre-emergence Test ZEAMX, percentage damage caused to the plant (five-point scale) (Zea mays (ZEAMX) [3]; 250 g/Ha (*)): 0 | Pre-emergence Test ZEAMX, percentage damage caused to the plant (five-point scale) (Zea mays (ZEAMX) [3]; 1000 g/ha): 1 (1=0-20%) | Pre-emergence Test IPOHE, percentage damage caused to the plant (five-point scale) ([4]; 250 g/Ha (*)): 3 (3=41-60%) | Pre-emergence Test IPOHE, percentage damage caused to the plant (five-point scale) ([4]; 1000 g/ha): 4 (4=61-80%) | Pre-emergence Test AMAPA, percentage damage caused to the plant (five-point scale) ([5]; 250 g/Ha (*)): 0 | Pre-emergence Test AMAPA, percentage damage caused to the plant (five-point scale) ([5]; 1000 g/ha): 3 (3=41-60%) | Pre-emergence Test AMARE, percentage damage caused to the plant (five-point scale) ([6]; 250 g/Ha (*)): 0 | Pre-emergence Test AMARE, percentage damage caused to the plant (five-point scale) ([6]; 1000 g/ha): 2 (2=21-40%) | percentage damage caused to the plant, SETFA (five-point scale) (Setaria faberi (SETFA) [7]; 250 g/Ha): 2 (2=21-40%) | percentage damage caused to the plant, SETFA (five-point scale) (Setaria faberi (SETFA) [7]; 1000 g/ha): 4 (4=61-80%) | percentage damage caused to the plant, ECHCG (five-point scale) ([8]; 250 g/Ha): 4 (4=61-80%) | percentage damage caused to the plant, ECHCG (five-point scale) ([8]; 1000 g/ha): 4 (4=61-80%) | percentage damage caused to the plant, ZEAMX (five-point scale) (Zea mays (ZEAMX) [9]; 250 g/Ha): 0 | percentage damage caused to the plant, ZEAMX (five-point scale) (Zea mays (ZEAMX) [9]; 1000 g/ha): 3 (3=41-60%) | percentage damage caused to the plant, IPOHE (five-point scale) ([10]; 1000 g/ha): 3 (3=41-60%) | percentage damage caused to the plant, AMAPA (five-point scale) ([11]; 250 g/Ha): 1 (1=0-20%) | percentage damage caused to the plant, AMAPA (five-point scale) ([11]; 1000 g/ha): 3 (3=41-60%) | percentage damage caused to the plant, AMARE (five-point scale) ([12]; 250 g/Ha): 1 (1=0-20%) | percentage damage caused to the plant, AMARE (five-point scale) ([12]; 1000 g/ha): 1 (1=0-20%)

Cn1c(Cn2ccc(Cl)n2)cc(=O)c(C(=O)O)c1-c1ccc(Cl)c(Cl)c1 [Compound 34, 6-[(3-chloropyrazol-1-yl)methyl]-2-(3,4-dichlorophenyl)-1-methyl-4-oxo-pyridine-3-carboxylic acid]
Pre-emergence Test SETFA, percentage damage caused to the plant (five-point scale) (Setaria faberi (SETFA) [1]; 1000 g/ha): 5 (5=81-100%) | Pre-emergence Test ECHCG, percentage damage caused to the plant (five-point scale) ([2]; 1000 g/ha): 5 (5=81-100%) | Pre-emergence Test ZEAMX, percentage damage caused to the plant (five-point scale) (Zea mays (ZEAMX) [3]; 1000 g/ha): 0 | Pre-emergence Test IPOHE, percentage damage caused to the plant (five-point scale) ([4]; 1000 g/ha): 0 | Pre-emergence Test AMAPA, percentage damage caused to the plant (five-point scale) ([5]; 1000 g/ha): 1 (1=0-20%) | Pre-emergence Test AMARE, percentage damage caused to the plant (five-point scale) ([6]; 1000 g/ha): 0 | percentage damage caused to the plant, SETFA (five-point scale) (Setaria faberi (SETFA) [7]; 250 g/Ha): 3 (3=41-60%) | percentage damage caused to the plant, SETFA (five-point scale) (Setaria faberi (SETFA) [7]; 1000 g/ha): 4 (4=61-80%) | percentage damage caused to the plant, ECHCG (five-point scale) ([8]; 250 g/Ha): 2 (2=21-40%) | percentage damage caused to the plant, ECHCG (five-point scale) ([8]; 1000 g/ha): 4 (4=61-80%) | percentage damage caused to the plant, ZEAMX (five-point scale) (Zea mays (ZEAMX) [9]; 250 g/Ha): 1 (1=0-20%) | percentage damage caused to the plant, ZEAMX (five-point scale) (Zea mays (ZEAMX) [9]; 1000 g/ha): 2 (2=21-40%) | percentage damage caused to the plant, IPOHE (five-point scale) ([10]; 250 g/Ha): 4 (4=61-80%) | percentage damage caused to the plant, IPOHE (five-point scale) ([10]; 1000 g/ha): 4 (4=61-80%) | percentage damage caused to the plant, AMAPA (five-point scale) ([11]; 250 g/Ha): 1 (1=0-20%) | percentage damage caused to the plant, AMAPA (five-point scale) ([11]; 1000 g/ha): 3 (3=41-60%) | percentage damage caused to the plant, AMARE (five-point scale) ([12]; 250 g/Ha): 1 (1=0-20%) | percentage damage caused to the plant, AMARE (five-point scale) ([12]; 1000 g/ha): 1 (1=0-20%)

COCCn1c(Cn2ccc(Cl)n2)cc(=O)c(C(=O)O)c1-c1ccc(Cl)c(Cl)c1 [Compound 171, 6-[(3-chloropyrazol-1-yl)methyl]-2-(3,4-dichlorophenyl)-1-(2-methoxyethyl)-4-oxo-pyridine-3-carboxylic acid]
Pre-emergence Test SETFA, percentage damage caused to the plant (five-point scale) (Setaria faberi (SETFA) [1]; 1000 g/ha): 4 (4=61-80%) | Pre-emergence Test ECHCG, percentage damage caused to the plant (five-point scale) ([2]; 1000 g/ha): 1 (1=0-20%) | Pre-emergence Test ZEAMX, percentage damage caused to the plant (five-point scale) (Zea mays (ZEAMX) [3]; 1000 g/ha): 1 (1=0-20%) | Pre-emergence Test IPOHE, percentage damage caused to the plant (five-point scale) ([4]; 1000 g/ha): 0 | Pre-emergence Test AMAPA, percentage damage caused to the plant (five-point scale) ([5]; 1000 g/ha): 0 | Pre-emergence Test AMARE, percentage damage caused to the plant (five-point scale) ([6]; 1000 g/ha): 1 (1=0-20%) | percentage damage caused to the plant, SETFA (five-point scale) (Setaria faberi (SETFA) [7]; 250 g/Ha): 0 | percentage damage caused to the plant, SETFA (five-point scale) (Setaria faberi (SETFA) [7]; 1000 g/ha): 3 (3=41-60%) | percentage damage caused to the plant, ECHCG (five-point scale) ([8]; 250 g/Ha): 1 (1=0-20%) | percentage damage caused to the plant, ECHCG (five-point scale) ([8]; 1000 g/ha): 3 (3=41-60%) | percentage damage caused to the plant, ZEAMX (five-point scale) (Zea mays (ZEAMX) [9]; 250 g/Ha): 1 (1=0-20%) | percentage damage caused to the plant, ZEAMX (five-point scale) (Zea mays (ZEAMX) [9]; 1000 g/ha): 1 (1=0-20%) | percentage damage caused to the plant, IPOHE (five-point scale) ([10]; 250 g/Ha): 1 (1=0-20%) | percentage damage caused to the plant, IPOHE (five-point scale) ([10]; 1000 g/ha): 1 (1=0-20%) | percentage damage caused to the plant, AMAPA (five-point scale) ([11]; 250 g/Ha): 0 | percentage damage caused to the plant, AMAPA (five-point scale) ([11]; 1000 g/ha): 0 | percentage damage caused to the plant, AMARE (five-point scale) ([12]; 250 g/Ha): 0 | percentage damage caused to the plant, AMARE (five-point scale) ([12]; 1000 g/ha): 0

CCOc1cc(C)nn1Cc1cc(=O)c(C(=O)O)c(-c2ccc(Cl)c(Cl)c2)n1CC [Compound 149, 2-(3,4-dichlorophenyl)-6-[(5-ethoxy-3-methyl-pyrazol-1-yl)methyl]-1-ethyl-4-oxo-pyridine-3-carboxylic acid]
Pre-emergence Test SETFA, percentage damage caused to the plant (five-point scale) (Setaria faberi (SETFA) [1]; 1000 g/ha): 4 (4=61-80%) | Pre-emergence Test ECHCG, percentage damage caused to the plant (five-point scale) ([2]; 1000 g/ha): 1 (1=0-20%) | Pre-emergence Test ZEAMX, percentage damage caused to the plant (five-point scale) (Zea mays (ZEAMX) [3]; 1000 g/ha): 0 | Pre-emergence Test IPOHE, percentage damage caused to the plant (five-point scale) ([4]; 1000 g/ha): 0 | Pre-emergence Test AMAPA, percentage damage caused to the plant (five-point scale) ([5]; 1000 g/ha): 3 (3=41-60%) | Pre-emergence Test AMARE, percentage damage caused to the plant (five-point scale) ([6]; 1000 g/ha): 1 (1=0-20%) | percentage damage caused to the plant, SETFA (five-point scale) (Setaria faberi (SETFA) [7]; 250 g/Ha): 1 (1=0-20%) | percentage damage caused to the plant, SETFA (five-point scale) (Setaria faberi (SETFA) [7]; 1000 g/ha): 3 (3=41-60%) | percentage damage caused to the plant, ECHCG (five-point scale) ([8]; 250 g/Ha): 1 (1=0-20%) | percentage damage caused to the plant, ECHCG (five-point scale) ([8]; 1000 g/ha): 4 (4=61-80%) | percentage damage caused to the plant, ZEAMX (five-point scale) (Zea mays (ZEAMX) [9]; 250 g/Ha): 0 | percentage damage caused to the plant, ZEAMX (five-point scale) (Zea mays (ZEAMX) [9]; 1000 g/ha): 2 (2=21-40%) | percentage damage caused to the plant, IPOHE (five-point scale) ([10]; 250 g/Ha): 1 (1=0-20%) | percentage damage caused to the plant, IPOHE (five-point scale) ([10]; 1000 g/ha): 2 (2=21-40%) | percentage damage caused to the plant, AMAPA (five-point scale) ([11]; 250 g/Ha): 0 | percentage damage caused to the plant, AMAPA (five-point scale) ([11]; 1000 g/ha): 1 (1=0-20%) | percentage damage caused to the plant, AMARE (five-point scale) ([12]; 250 g/Ha): 0 | percentage damage caused to the plant, AMARE (five-point scale) ([12]; 1000 g/ha): 2 (2=21-40%)
